Among the test systems are SW-620 colon; SF-295 CNS; MDA-MB-231 breast; HL-60(TB) leukemia; BT-549 breast; SK-MEL-28 melanoma; PC-3 prostate; SK-MEL-5 melanoma.
Assay in all cases: growth of human tumour cells (NCI), 48 h

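Protocol summary: plate cells (96-well), add compound at 5 concentrations, incubate 48 h, interpolate endpoints linearly. GI50 is the concentration that inhibits growth by half. TGI is the concentration that stops growth completely.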

Drawing on PubChem BioAssay (NCI), this text covers GI50 and TGI for 9 compounds.

Take `CO/C=C/C(=O)c1cc2cnc3c(=N)cc(NC(=O)C(C)C)c([nH]1)c23`: the GI50 is 0.0744 µM with SW-620 colon; 0.105 µM in the assay on SF-295 CNS; 0.0883 µM with MDA-MB-231 breast; 0.032 µM with HL-60(TB) leukemia; 0.0236 µM with BT-549 breast; 0.0587 µM with SK-MEL-28 melanoma. The GI50 in the assay on PC-3 prostate is 0.0183 µM; in the assay on SK-MEL-5 melanoma, 0.075 µM. The TGI with SW-620 colon turned out to be 0.718 µM; with SF-295 CNS it was 0.771 µM; with MDA-MB-231 breast, 0.66 µM; with HL-60(TB) leukemia, 0.295 µM; in the assay with BT-549 breast, 0.258 µM; with SK-MEL-28 melanoma, 0.509 µM. In addition, the TGI in the assay on PC-3 prostate was 0.817 µM; in the assay on SK-MEL-5 melanoma, 0.183 µM.

For the compound `Nc1ccccc1NC(=O)c1ccc(CNc2nccc(-c3cccnc3)n2)cc1`, the GI50 in the assay on SW-620 colon was 0.518 µM; in the assay on SF-295 CNS it was 0.722 µM; in the assay on MDA-MB-231 breast, 2.44 µM; in the assay with HL-60(TB) leukemia, 0.424 µM; with BT-549 breast, 1.9 µM; in the assay with SK-MEL-28 melanoma, 0.691 µM. In addition, the results for the GI50 in the assay on PC-3 prostate and with SK-MEL-5 melanoma were 0.928 µM and 0.381 µM, respectively. For the same compound, the TGI was > 100 µM with SW-620 colon; > 100 µM in the assay on SF-295 CNS; > 100 µM in the assay with MDA-MB-231 breast; 2.43 µM with HL-60(TB) leukemia; 14.8 µM in the assay on BT-549 breast; 3.15 µM in the assay with SK-MEL-28 melanoma. Further, the TGI is > 100 µM with PC-3 prostate and 1.15 µM in the assay with SK-MEL-5 melanoma.

With `CN1CCC(COc2cnc(-c3cccc(Cn4nc(-c5cccc(C#N)c5)ccc4=O)c3)nc2)CC1`, the GI50 was 3.55 µM in the assay on SW-620 colon; 0.771 µM in the assay on SF-295 CNS; 2 µM in the assay on MDA-MB-231 breast; 2 µM in the assay with HL-60(TB) leukemia; 4.66 µM in the assay on BT-549 breast; 1.82 µM with SK-MEL-28 melanoma. Besides, the GI50 is 6.7 µM with PC-3 prostate and 1.49 µM with SK-MEL-5 melanoma. Besides, the TGI came out at 31.3 µM in the assay on SW-620 colon; 16.5 µM in the assay on SF-295 CNS; 4.43 µM with MDA-MB-231 breast; 4.02 µM in the assay on HL-60(TB) leukemia; 15.2 µM in the assay on BT-549 breast; 3.52 µM with SK-MEL-28 melanoma. For the same compound, the results for the TGI in the assay on PC-3 prostate and in the assay on SK-MEL-5 melanoma were 31.8 µM and 2.85 µM, respectively.

For the compound `Cc1cccc(-c2[nH]ncc2-c2ccc3ncccc3n2)n1`, the GI50 with SW-620 colon is 9.88 µM; in the assay with SF-295 CNS, 13.7 µM; with MDA-MB-231 breast, 14.5 µM; with HL-60(TB) leukemia it was 10 µM; with BT-549 breast, > 25 µM; in the assay with SK-MEL-28 melanoma, 13.3 µM. In addition, the values for the GI50 in the assay with PC-3 prostate and in the assay on SK-MEL-5 melanoma were > 17.3 µM and 9.63 µM, respectively. The TGI in the assay on SW-620 colon was > 25 µM; in the assay with SF-295 CNS, > 25 µM; in the assay on MDA-MB-231 breast, > 25 µM; in the assay on HL-60(TB) leukemia it was > 23.7 µM; in the assay on BT-549 breast it was > 25 µM; in the assay with SK-MEL-28 melanoma, > 25 µM. Also, the TGI in the assay on PC-3 prostate was > 25 µM; in the assay with SK-MEL-5 melanoma, > 18.5 µM.

Consider `CN(C)c1ccc(/C=C/c2ccnc3c(O)cccc23)cc1`, for which the GI50 is 0.397 µM in the assay with SW-620 colon; 1.06 µM in the assay with SF-295 CNS; 0.434 µM with MDA-MB-231 breast; 0.292 µM in the assay with HL-60(TB) leukemia; 1.01 µM in the assay with BT-549 breast; 0.624 µM in the assay with SK-MEL-28 melanoma. Moreover, the figures for the GI50 in the assay with PC-3 prostate and in the assay with SK-MEL-5 melanoma were 0.383 µM and 0.37 µM, respectively. Also, the TGI was > 100 µM in the assay with SW-620 colon; > 100 µM with SF-295 CNS; > 100 µM in the assay with MDA-MB-231 breast; 1.75 µM in the assay with HL-60(TB) leukemia; > 100 µM in the assay on BT-549 breast; > 100 µM with SK-MEL-28 melanoma. Further, the TGI in the assay with PC-3 prostate was > 100 µM; in the assay on SK-MEL-5 melanoma, 3.05 µM.

With `CC(C)(C)N1CCC1CN` (stereo not given), the GI50 in the assay with SW-620 colon, in the assay on SF-295 CNS, in the assay on MDA-MB-231 breast, in the assay on HL-60(TB) leukemia, in the assay on BT-549 breast and with SK-MEL-28 melanoma was > 100 µM in each case. Also, the GI50 in the assay with PC-3 prostate and in the assay on SK-MEL-5 melanoma was > 100 µM throughout. Further, the TGI in the assay on SW-620 colon, in the assay on SF-295 CNS, in the assay with MDA-MB-231 breast, in the assay with HL-60(TB) leukemia, in the assay with BT-549 breast and in the assay with SK-MEL-28 melanoma was > 100 µM in each case. For the same compound, the TGI in the assay with PC-3 prostate and with SK-MEL-5 melanoma was > 100 µM each time.

`NS(=O)(=O)OCC1OC(n2cnc3cncnc32)C(O)C1O` (stereo not given): the GI50 with SW-620 colon was 0.0167 µM; in the assay on SF-295 CNS, 0.0279 µM; in the assay with MDA-MB-231 breast, 0.0101 µM; with HL-60(TB) leukemia, 0.0556 µM; with BT-549 breast, 0.0275 µM; with SK-MEL-28 melanoma it was 0.039 µM. In addition, the values for the GI50 in the assay on PC-3 prostate and in the assay with SK-MEL-5 melanoma were 0.0312 µM and 0.0402 µM, respectively. Moreover, the TGI with SW-620 colon came out at 0.155 µM; in the assay with SF-295 CNS it was 0.12 µM; in the assay on MDA-MB-231 breast, 0.0376 µM; in the assay with BT-549 breast, 0.0913 µM; in the assay with SK-MEL-28 melanoma, 0.185 µM; in the assay on PC-3 prostate it was 0.237 µM. Further, in the assay with SK-MEL-5 melanoma, the TGI was determined as 0.144 µM.

`COc1c(O)c(OC)c2oc(-c3ccc(O)c(O)c3)c(OC)c(=O)c2c1O`: the TGI with SW-620 colon was > 100 µM; in the assay on SF-295 CNS it was > 100 µM; with MDA-MB-231 breast, > 100 µM; with HL-60(TB) leukemia, 68.7 µM; in the assay on BT-549 breast it was > 100 µM; with SK-MEL-28 melanoma, > 100 µM. Moreover, the TGI in the assay on PC-3 prostate is > 100 µM; in the assay on SK-MEL-5 melanoma, 50.8 µM.

As for `CCOC(=O)c1ccc(Nc2sc(C(=O)c3ccc(Br)cc3)c(N)c2C#N)cc1`, the GI50 in the assay on SW-620 colon was 0.584 µM; in the assay with SF-295 CNS, 0.478 µM; in the assay on MDA-MB-231 breast, 2.92 µM; with HL-60(TB) leukemia it was 0.421 µM; in the assay with BT-549 breast it was > 100 µM; with SK-MEL-28 melanoma, 4.81 µM. The figures for the GI50 with PC-3 prostate and with SK-MEL-5 melanoma were 0.797 µM and 1.02 µM, respectively. Moreover, the TGI in the assay with SW-620 colon was > 100 µM; in the assay with SF-295 CNS it was > 100 µM; with MDA-MB-231 breast it was > 100 µM; with HL-60(TB) leukemia, > 25.2 µM; with BT-549 breast it was > 100 µM; in the assay with SK-MEL-28 melanoma it was > 100 µM. The TGI in the assay on PC-3 prostate and in the assay with SK-MEL-5 melanoma was > 100 µM throughout.
